Assay results reported in ChEMBL document CHEMBL3885881, “DrugMatrix”.

Species on record: Rattus norvegicus
Assay: DrugMatrix - Regimen: Daily Repeat
Format: toxicity, organism-based, Sprague-Dawley
Set-up: regimen Daily Repeat, gender Male, age 6-8 weeks
Details: in vivo, po, route oral GAVAGE, […]; for ABSOLUTE BASOPHIL / ABSOLUTE EOSINOPHIL / ABSOLUTE LYMPHOCYTE / ABSOLUTE MONOCYTE / ABSOLUTE SEGMENTED NEUTROPHIL / BASOPHIL / EOSINOPHIL / ERYTHROCYTE COUNT / HEMATOCRIT / HEMOGLOBIN / LEUKOCYTE COUNT / LYMPHOCYTE / MEAN CORPUSCULAR HEMOGLOBIN / MEAN CORPUSCULAR HEMOGLOBIN CONCENTRATION / MEAN CORPUSCULAR VOLUME / MONOCYTE / NEUTROPHIL / NUCLEATED RED BLOOD CELLS / PLATELET COUNT: tissue Blood; for ALANINE AMINOTRANSFERASE / ALBUMIN / ALKALINE PHOSPHATASE / ASPARTATE AMINOTRANSFERASE / BLOOD UREA NITROGEN / CARBON DIOXIDE / CHLORIDE / CHOLESTEROL / CREATINE PHOSPHOKINASE / CREATININE / GLUCOSE / LACTATE DEHYDROGENASE / LIPASE / PHOSPHORUS / POTASSIUM / SODIUM / TOTAL BILIRUBIN / TOTAL PROTEIN / URIC ACID: tissue Plasma
[1] = 0 mg/kg, 72 h, dose level Control, time 3 day
[2] = 0 mg/kg, 120 h, dose level Control, time 5 day
[3] = 30 mg/kg, 72 h, dose level Low, time 3 day

How did the “ABSOLUTE BASOPHIL” value [1] turn out when `COC1=CC(=O)C[C@@H](C)[C@]12Oc1c(Cl)c(OC)cc(OC)c1C2=O` [GRISEOFULVIN] was run?
Its value is 0 CELLS/uL.

And the “ABSOLUTE EOSINOPHIL” value [1]?
The value was 0 CELLS/uL.

What about the “ABSOLUTE LYMPHOCYTE” value [1] of the same molecule?
The value was 14687.67 CELLS/uL.

What about the “ABSOLUTE MONOCYTE” value [1] of the same molecule?
The value was 164 CELLS/uL.

And the “ABSOLUTE SEGMENTED NEUTROPHIL” value [1]?
Its value is 1748.33 CELLS/uL.

And the BASOPHIL [1]?
The BASOPHIL was 0%.

And the EOSINOPHIL [1]?
Its EOSINOPHIL is 0%.

What about the “ERYTHROCYTE COUNT” value [1] of the same molecule?
The value was 5.51 x10E6/uL.

And the HEMATOCRIT [1]?
The HEMATOCRIT was 33.68%.

What about the HEMOGLOBIN [1] of the same molecule?
Its HEMOGLOBIN is 13.4 G/DL.

What about the “LEUKOCYTE COUNT” value [1] of the same molecule?
Its value is 16.6 x10E3/uL.

And the LYMPHOCYTE [1]?
Its LYMPHOCYTE is 88.83%.

And the “MEAN CORPUSCULAR HEMOGLOBIN” value [1]?
Its value is 24.47 pg.

What about the “MEAN CORPUSCULAR HEMOGLOBIN CONCENTRATION” value [1] of the same molecule?
Its value is 39.82 G/DL.

And the “MEAN CORPUSCULAR VOLUME” value [1]?
The value was 61.23 fL.

What about the MONOCYTE [1] of the same molecule?
The MONOCYTE was 0.83%.

And the NEUTROPHIL [1]?
The NEUTROPHIL was 10.33%.

And the “NUCLEATED RED BLOOD CELLS” value [1]?
Its value is 0 /100WBC.

What about the “PLATELET COUNT” value [1] of the same molecule?
Its value is 1329.67 x10E3/uL.

And the “ALANINE AMINOTRANSFERASE” value [1]?
Its value is 61.33 u/L.

What about the ALBUMIN [1] of the same molecule?
The ALBUMIN was 4.18 G/DL.

And the “ALKALINE PHOSPHATASE” value [1]?
Its value is 332.5 u/L.

What about the “ASPARTATE AMINOTRANSFERASE” value [1] of the same molecule?
The value was 98.33 u/L.

And the “BLOOD UREA NITROGEN” value [1]?
The value was 15.83 mg/dL.

And the “CARBON DIOXIDE” value [1]?
Its value is 27.83 mmol/L.

What about the CHLORIDE [1] of the same molecule?
The CHLORIDE was 100 MEQ/L.

What about the CHOLESTEROL [1] of the same molecule?
Its CHOLESTEROL is 76.17 mg/dL.

What about the “CREATINE PHOSPHOKINASE” value [1] of the same molecule?
Its value is 729.17 u/L.

What about the CREATININE [1] of the same molecule?
The CREATININE was 0.21 mg/dL.

What about the GLUCOSE [1] of the same molecule?
Its GLUCOSE is 151.83 mg/dL.

And the “LACTATE DEHYDROGENASE” value [1]?
The value was 484.67 u/L.

What about the LIPASE [1] of the same molecule?
Its LIPASE is 10 u/L.

And the PHOSPHORUS [1]?
The PHOSPHORUS was 11.3 mg/dL.

And the POTASSIUM [1]?
The POTASSIUM was 6.1 MEQ/L.

What about the SODIUM [1] of the same molecule?
The SODIUM was 142.9 MEQ/L.

What about the “TOTAL BILIRUBIN” value [1] of the same molecule?
The value was 0.23 mg/dL.

What about the “TOTAL PROTEIN” value [1] of the same molecule?
The value was 5.68 G/DL.

What about the “URIC ACID” value [1] of the same molecule?
Its value is 1.75 mg/dL.

And the “ABSOLUTE BASOPHIL” value [2]?
Its value is 0 CELLS/uL.

What about the “ABSOLUTE EOSINOPHIL” value [2] of the same molecule?
Its value is 58.67 CELLS/uL.

And the “ABSOLUTE LYMPHOCYTE” value [2]?
Its value is 15950.83 CELLS/uL.

And the “ABSOLUTE MONOCYTE” value [2]?
The value was 172.5 CELLS/uL.

What about the “ABSOLUTE SEGMENTED NEUTROPHIL” value [2] of the same molecule?
The value was 2551.33 CELLS/uL.

And the BASOPHIL [2]?
The BASOPHIL was 0%.

And the EOSINOPHIL [2]?
The EOSINOPHIL was 0.33%.

What about the “ERYTHROCYTE COUNT” value [2] of the same molecule?
Its value is 5.5 x10E6/uL.

And the HEMATOCRIT [2]?
The HEMATOCRIT was 34.05%.

What about the HEMOGLOBIN [2] of the same molecule?
Its HEMOGLOBIN is 13.42 G/DL.

And the “LEUKOCYTE COUNT” value [2]?
The value was 18.73 x10E3/uL.

And the LYMPHOCYTE [2]?
Its LYMPHOCYTE is 84.5%.

What about the “MEAN CORPUSCULAR HEMOGLOBIN” value [2] of the same molecule?
The value was 24.42 pg.

And the “MEAN CORPUSCULAR HEMOGLOBIN CONCENTRATION” value [2]?
Its value is 39.42 G/DL.

And the “MEAN CORPUSCULAR VOLUME” value [2]?
The value was 61.97 fL.

What about the MONOCYTE [2] of the same molecule?
Its MONOCYTE is 1%.

What about the NEUTROPHIL [2] of the same molecule?
Its NEUTROPHIL is 14.17%.

And the “NUCLEATED RED BLOOD CELLS” value [2]?
The value was 0.33 /100WBC.

What about the “PLATELET COUNT” value [2] of the same molecule?
Its value is 1143.17 x10E3/uL.

What about the “ALANINE AMINOTRANSFERASE” value [2] of the same molecule?
Its value is 57 u/L.

And the ALBUMIN [2]?
Its ALBUMIN is 4.17 G/DL.

And the “ALKALINE PHOSPHATASE” value [2]?
The value was 347.33 u/L.

What about the “ASPARTATE AMINOTRANSFERASE” value [2] of the same molecule?
Its value is 93.67 u/L.

And the “BLOOD UREA NITROGEN” value [2]?
Its value is 15.67 mg/dL.

And the “CARBON DIOXIDE” value [2]?
Its value is 27.17 mmol/L.

What about the CHLORIDE [2] of the same molecule?
The CHLORIDE was 104.33 MEQ/L.

And the CHOLESTEROL [2]?
Its CHOLESTEROL is 69.5 mg/dL.

What about the “CREATINE PHOSPHOKINASE” value [2] of the same molecule?
Its value is 317.17 u/L.

And the CREATININE [2]?
Its CREATININE is 0.2 mg/dL.

And the GLUCOSE [2]?
Its GLUCOSE is 162.33 mg/dL.

What about the “LACTATE DEHYDROGENASE” value [2] of the same molecule?
The value was 408.67 u/L.

And the LIPASE [2]?
The LIPASE was 10.17 u/L.

And the PHOSPHORUS [2]?
The PHOSPHORUS was 11.08 mg/dL.

What about the POTASSIUM [2] of the same molecule?
Its POTASSIUM is 6.36 MEQ/L.

What about the SODIUM [2] of the same molecule?
The SODIUM was 146.07 MEQ/L.

And the “TOTAL BILIRUBIN” value [2]?
The value was 0.22 mg/dL.

What about the “TOTAL PROTEIN” value [2] of the same molecule?
Its value is 5.92 G/DL.

And the “URIC ACID” value [2]?
The value was 1.47 mg/dL.

What about the “ABSOLUTE BASOPHIL” value [3] of the same molecule?
The value was 0 CELLS/uL.

What about the “ABSOLUTE EOSINOPHIL” value [3] of the same molecule?
The value was 0 CELLS/uL.

And the “ABSOLUTE LYMPHOCYTE” value [3]?
Its value is 15609 CELLS/uL.

And the “ABSOLUTE MONOCYTE” value [3]?
Its value is 50.67 CELLS/uL.

What about the “ABSOLUTE SEGMENTED NEUTROPHIL” value [3] of the same molecule?
The value was 2173.67 CELLS/uL.

And the BASOPHIL [3]?
The BASOPHIL was 0%.

What about the EOSINOPHIL [3] of the same molecule?
Its EOSINOPHIL is 0%.

And the “ERYTHROCYTE COUNT” value [3]?
Its value is 5.42 x10E6/uL.

And the HEMATOCRIT [3]?
The HEMATOCRIT was 34.33%.

And the HEMOGLOBIN [3]?
Its HEMOGLOBIN is 13.33 G/DL.

And the “LEUKOCYTE COUNT” value [3]?
Its value is 17.83 x10E3/uL.

And the LYMPHOCYTE [3]?
The LYMPHOCYTE was 87.67%.

And the “MEAN CORPUSCULAR HEMOGLOBIN” value [3]?
The value was 24.6 pg.

And the “MEAN CORPUSCULAR HEMOGLOBIN CONCENTRATION” value [3]?
Its value is 38.9 G/DL.

What about the “MEAN CORPUSCULAR VOLUME” value [3] of the same molecule?
The value was 63.3 fL.

And the MONOCYTE [3]?
The MONOCYTE was 0.33%.

And the NEUTROPHIL [3]?
Its NEUTROPHIL is 12%.

What about the “NUCLEATED RED BLOOD CELLS” value [3] of the same molecule?
Its value is 0 /100WBC.

And the “PLATELET COUNT” value [3]?
Its value is 1271.33 x10E3/uL.

What about the “ALANINE AMINOTRANSFERASE” value [3] of the same molecule?
The value was 68.33 u/L.

And the ALBUMIN [3]?
Its ALBUMIN is 3.87 G/DL.

And the “ALKALINE PHOSPHATASE” value [3]?
The value was 322.67 u/L.

And the “ASPARTATE AMINOTRANSFERASE” value [3]?
Its value is 105.67 u/L.

What about the “BLOOD UREA NITROGEN” value [3] of the same molecule?
Its value is 16 mg/dL.

And the “CARBON DIOXIDE” value [3]?
Its value is 30.33 mmol/L.

And the CHLORIDE [3]?
The CHLORIDE was 103 MEQ/L.

What about the CHOLESTEROL [3] of the same molecule?
The CHOLESTEROL was 72.67 mg/dL.

What about the “CREATINE PHOSPHOKINASE” value [3] of the same molecule?
The value was 481 u/L.

What about the CREATININE [3] of the same molecule?
The CREATININE was 0.24 mg/dL.

What about the GLUCOSE [3] of the same molecule?
The GLUCOSE was 139.67 mg/dL.

And the “LACTATE DEHYDROGENASE” value [3]?
Its value is 535 u/L.

What about the LIPASE [3] of the same molecule?
Its LIPASE is 10 u/L.

What about the PHOSPHORUS [3] of the same molecule?
The PHOSPHORUS was 11.37 mg/dL.

What about the POTASSIUM [3] of the same molecule?
The POTASSIUM was 6.77 MEQ/L.

What about the SODIUM [3] of the same molecule?
Its SODIUM is 145.27 MEQ/L.

And the “TOTAL BILIRUBIN” value [3]?
The value was 0.2 mg/dL.

What about the “TOTAL PROTEIN” value [3] of the same molecule?
Its value is 5.3 G/DL.

And the “URIC ACID” value [3]?
Its value is 1.6 mg/dL.
